In the supplement of paper PMC10627819:

Legend:
S. aureus DSM 20231 [1] = experiment: Bliss interaction score (quartile over a dose matrix) (fitness difference); higher = more antagonism (negative = synergy)
In short: (§1)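 Growth in each well was taken as OD595 at entry into stationary phase. Dividing by the plate's robust no-drug mean and capping at 1 gave fitness, and single-drug fitness was inferred from the combination data. The Bliss score, observed minus product-expected fitness, is summarised by quartiles over technical, biological and donor/recipient replicates.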

S. pneumoniae D39V [2] = experiment: as above
In short: as §1

S. aureus Newman [3] = experiment: as above
In short: as §1

B. subtilis 168 = experiment: as above
In short: as §1

S. aureus DSM 20231 [4] = experiment: fitness (endpoint OD595 vs no drug) (fraction); higher = more growth
In short: (§2)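 Cultures at OD595 0.01 were dispensed into 384-well plates in TSB, LB Lennox or CY and incubated at 37 °C. Every 30 min for 14 h, OD595 was read and corrected by the first reading. Fitness is the optical density at entry into stationary phase relative to the robust mean of no-drug control wells, capped at 1.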

S. aureus Newman [5] = experiment: as above
In short: as §2

S. pneumoniae D39V [6] = experiment: as above
In short: as §2
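For Bliss interaction score (quartile over a dose matrix) in this document: first quartile when negative (synergy) and third quartile when positive (antagonism).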

COc1c(N2C[C@@H]3CCCN[C@@H]3C2)c(F)cc2c(=O)c(C(=O)O)cn(C3CC3)c12 [Moxifloxacin] + CCCCCCCCCC(=O)N[C@@H]1[C@H]([C@@H]([C@H](O[C@H]1OC2=C3C=C4C=C2OC5=C(C=C(C=C5)[C@H]([C@H]6C(=O)N[C@@H](C7=C(C(=CC(=C7)O)OC8[C@H]([C@H]([C@@H]([C@H](O8)CO)O)O)O)C9=C(C=CC(=C9)[C@H](C(=O)N6)NC(=O)[C@@H]4NC(=O)[C@@H]1C2=CC(=CC(=C2)OC2=C(C=CC(=C2)[C@H](C(=O)N[C@H](CC2=CC(=C(O3)C=C2)Cl)C(=O)N1)N)O)O)O)C(=O)O)O[C@H]1[C@@H]([C@H]([C@@H]([C@H](O1)CO)O)O)NC(=O)C)Cl)CO)O)O [Teicoplanin]
main component drawn
Conditions	Bliss interaction score
B. subtilis 168	-0.0201
S. aureus DSM 20231 [1]	0.0596
S. aureus Newman [3]	-0.0744
S. pneumoniae D39V [2]	-0.0767

fitness, main component drawn
Conditions	first compound 0.0075 µg/mL	first compound 0.015 µg/mL	first compound 0.03 µg/mL
S. aureus DSM 20231 [4], partner 0.1562 µg/mL	0.912	0.852	0.748
S. aureus DSM 20231 [4], partner 0.3125 µg/mL	≥ 1	0.94	0.752
S. aureus DSM 20231 [4], partner 0.625 µg/mL	≥ 1	0.991	0.745
S. aureus Newman [5], partner 0.1562 µg/mL	0.773	0.597	0.0859
S. aureus Newman [5], partner 0.3125 µg/mL	0.797	0.577	0.0839
S. aureus Newman [5], partner 0.625 µg/mL	0.717	–	0.06

fitness, one replicate, main component drawn
Conditions	partner 0.1562 µg/mL	partner 0.3125 µg/mL	partner 0.62 µg/mL	partner 0.625 µg/mL	partner 1.24 µg/mL	partner 2.48 µg/mL
S. aureus DSM 20231 [4], first compound 0.06 µg/mL	0.665	0.7	–	0.697	–	–
S. aureus DSM 20231 [4], first compound 0.12 µg/mL	0.497	0.468	–	0.513	–	–
S. aureus Newman [5], first compound 0.0075 µg/mL	–	–	0.679	–	0.608	0.337
S. aureus Newman [5], first compound 0.015 µg/mL	–	–	0.608	–	0.488	0.0713
S. aureus Newman [5], first compound 0.03 µg/mL	–	–	0.0881	–	0.0113	0.0176

COc1c(N2C[C@@H]3CCCN[C@@H]3C2)c(F)cc2c(=O)c(C(=O)O)cn(C3CC3)c12 [Moxifloxacin] + CN[C@H](CC(C)C)C(=O)N[C@H]1C(=O)N[C@@H](CC(N)=O)C(=O)N[C@H]2C(=O)N[C@H]3C(=O)N[C@H](C(=O)N[C@H](C(=O)O)c4cc(O)cc(O)c4-c4cc3ccc4O)[C@H](O)c3ccc(c(Cl)c3)Oc3cc2cc(c3O[C@@H]2O[C@H](CO)[C@@H](O)[C@H](O)[C@H]2O[C@H]2C[C@](C)(N)[C@H](O)[C@H](C)O2)Oc2ccc(cc2Cl)[C@H]1O [Vancomycin]
Conditions	Bliss interaction score
B. subtilis 168	0.031
S. aureus DSM 20231 [1]	-0.0583
S. aureus Newman [3]	-0.0617
S. pneumoniae D39V [2]	0.0942

Conditions	fitness
S. aureus DSM 20231 [4], first compound 0.0075 µg/mL, partner 0.1875 µg/mL	0.818
S. aureus DSM 20231 [4], first compound 0.0075 µg/mL, partner 0.375 µg/mL	0.854
S. aureus DSM 20231 [4], first compound 0.0075 µg/mL, partner 0.75 µg/mL	0.853
S. aureus DSM 20231 [4], first compound 0.015 µg/mL, partner 0.1875 µg/mL	0.745
S. aureus DSM 20231 [4], first compound 0.015 µg/mL, partner 0.375 µg/mL	0.761
S. aureus DSM 20231 [4], first compound 0.015 µg/mL, partner 0.75 µg/mL	0.84
S. aureus DSM 20231 [4], first compound 0.03 µg/mL, partner 0.1875 µg/mL	0.667
S. aureus DSM 20231 [4], first compound 0.03 µg/mL, partner 0.375 µg/mL	0.689
S. aureus DSM 20231 [4], first compound 0.03 µg/mL, partner 0.75 µg/mL	0.652
S. aureus Newman [5], first compound 0.0075 µg/mL, partner 0.1875 µg/mL	0.768
S. aureus Newman [5], first compound 0.0075 µg/mL, partner 0.375 µg/mL	0.75
S. aureus Newman [5], first compound 0.0075 µg/mL, partner 0.75 µg/mL	0.768
S. aureus Newman [5], first compound 0.015 µg/mL, partner 0.75 µg/mL	0.518
S. aureus Newman [5], first compound 0.03 µg/mL, partner 0.375 µg/mL	0.0717
S. aureus Newman [5], first compound 0.03 µg/mL, partner 0.75 µg/mL	0.0889
S. pneumoniae D39V [6], first compound 0.0037 µg/mL, partner 0.03125 µg/mL	0.881
S. pneumoniae D39V [6], first compound 0.005 µg/mL, partner 0.125 µg/mL	0.909
S. pneumoniae D39V [6], first compound 0.0075 µg/mL, partner 0.03125 µg/mL	0.908
S. pneumoniae D39V [6], first compound 0.0075 µg/mL, partner 0.0625 µg/mL	0.853
S. pneumoniae D39V [6], first compound 0.0075 µg/mL, partner 0.125 µg/mL	0.753
S. pneumoniae D39V [6], first compound 0.01 µg/mL, partner 0.125 µg/mL	0.92
S. pneumoniae D39V [6], first compound 0.015 µg/mL, partner 0.03125 µg/mL	0.897
S. pneumoniae D39V [6], first compound 0.015 µg/mL, partner 0.0625 µg/mL	0.848
S. pneumoniae D39V [6], first compound 0.015 µg/mL, partner 0.125 µg/mL	0.689
S. pneumoniae D39V [6], first compound 0.02 µg/mL, partner 0.125 µg/mL	0.913

fitness, S. aureus DSM 20231 [4], one replicate
Conditions	partner 0.1875 µg/mL	partner 0.375 µg/mL	partner 0.75 µg/mL
first compound 0.06 µg/mL	0.688	0.694	0.704
first compound 0.12 µg/mL	0.46	0.455	0.46

COc1c(N2C[C@@H]3CCCN[C@@H]3C2)c(F)cc2c(=O)c(C(=O)O)cn(C3CC3)c12 [Moxifloxacin] + Cn1nnc(-c2ccc(-c3ccc(N4C[C@H](CO)OC4=O)cc3F)cn2)n1 [Tedizolid]
Conditions	Bliss interaction score
B. subtilis 168	-0.0253
S. aureus DSM 20231 [1]	0.103
S. aureus Newman [3]	0.0881
S. pneumoniae D39V [2]	-0.0629

fitness
Conditions	partner 0.03125 µg/mL	partner 0.0625 µg/mL	partner 0.125 µg/mL	partner 0.25 µg/mL	partner 0.5 µg/mL
S. aureus DSM 20231 [4], first compound 0.0075 µg/mL	–	0.813	0.765	0.411	–
S. aureus DSM 20231 [4], first compound 0.015 µg/mL	–	0.755	0.704	0.453	–
S. aureus DSM 20231 [4], first compound 0.03 µg/mL	–	0.682	0.7	0.653	–
S. aureus Newman [5], first compound 0.0075 µg/mL	–	0.755	0.737	0.41	–
S. aureus Newman [5], first compound 0.015 µg/mL	–	0.587	0.581	0.291	–
S. aureus Newman [5], first compound 0.03 µg/mL	–	–	0.343	0.178	–
S. pneumoniae D39V [6], first compound 0.0037 µg/mL	0.887	0.877	0.741	–	–
S. pneumoniae D39V [6], first compound 0.005 µg/mL	–	–	0.851	0.8	0.441
S. pneumoniae D39V [6], first compound 0.0075 µg/mL	0.904	0.871	0.761	–	–
S. pneumoniae D39V [6], first compound 0.01 µg/mL	–	–	0.857	0.775	0.466
S. pneumoniae D39V [6], first compound 0.015 µg/mL	0.897	0.822	0.761	–	–
S. pneumoniae D39V [6], first compound 0.02 µg/mL	–	–	0.842	0.778	0.49

fitness, S. aureus DSM 20231 [4], one replicate
Conditions	partner 0.0625 µg/mL	partner 0.125 µg/mL	partner 0.25 µg/mL
first compound 0.06 µg/mL	0.67	0.69	0.727
first compound 0.12 µg/mL	0.511	0.539	0.595
